Our source for the IC50 values is US9963434B2, “N-arylmethyl sulfonamide negative modulators of NR2A” (LUC THERAPEUTICS, priority 2013, dated 2018).

The target in the test is NR1/NR2A (Homo sapiens (Human), UniProt Q05586+Q12879). Description: FDSS Ca2+ influx inhibition assay in HEK293 cells expressing NR1/NR2A. In kind it is cell-based. The following applies: 3 μM glutamate, 3 μM glycine, 1 mM Ca2+. The essentials:
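Fluo-8-loaded HEK293 NR1/NR2A cells preincubated 10 min with compound at 10 μM final (0.1% DMSO) in Ca2+/Mg2+-free HBSS with 20 mM HEPES. Stimulated with 3 μM glutamate, 3 μM glycine, 1 mM Ca2+; FDSS recording for 3 min, end/baseline fluorescence ratio compared with MK801.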

Setting [1] is: inhibition relative to MK801, read-out: NR2A IC50.

Each structure is given as a SMILES string. Read-outs that look alike come from different tables or passages of the source.

Sequence of NR1/NR2A (Q12879 23-1464, other chains not shown): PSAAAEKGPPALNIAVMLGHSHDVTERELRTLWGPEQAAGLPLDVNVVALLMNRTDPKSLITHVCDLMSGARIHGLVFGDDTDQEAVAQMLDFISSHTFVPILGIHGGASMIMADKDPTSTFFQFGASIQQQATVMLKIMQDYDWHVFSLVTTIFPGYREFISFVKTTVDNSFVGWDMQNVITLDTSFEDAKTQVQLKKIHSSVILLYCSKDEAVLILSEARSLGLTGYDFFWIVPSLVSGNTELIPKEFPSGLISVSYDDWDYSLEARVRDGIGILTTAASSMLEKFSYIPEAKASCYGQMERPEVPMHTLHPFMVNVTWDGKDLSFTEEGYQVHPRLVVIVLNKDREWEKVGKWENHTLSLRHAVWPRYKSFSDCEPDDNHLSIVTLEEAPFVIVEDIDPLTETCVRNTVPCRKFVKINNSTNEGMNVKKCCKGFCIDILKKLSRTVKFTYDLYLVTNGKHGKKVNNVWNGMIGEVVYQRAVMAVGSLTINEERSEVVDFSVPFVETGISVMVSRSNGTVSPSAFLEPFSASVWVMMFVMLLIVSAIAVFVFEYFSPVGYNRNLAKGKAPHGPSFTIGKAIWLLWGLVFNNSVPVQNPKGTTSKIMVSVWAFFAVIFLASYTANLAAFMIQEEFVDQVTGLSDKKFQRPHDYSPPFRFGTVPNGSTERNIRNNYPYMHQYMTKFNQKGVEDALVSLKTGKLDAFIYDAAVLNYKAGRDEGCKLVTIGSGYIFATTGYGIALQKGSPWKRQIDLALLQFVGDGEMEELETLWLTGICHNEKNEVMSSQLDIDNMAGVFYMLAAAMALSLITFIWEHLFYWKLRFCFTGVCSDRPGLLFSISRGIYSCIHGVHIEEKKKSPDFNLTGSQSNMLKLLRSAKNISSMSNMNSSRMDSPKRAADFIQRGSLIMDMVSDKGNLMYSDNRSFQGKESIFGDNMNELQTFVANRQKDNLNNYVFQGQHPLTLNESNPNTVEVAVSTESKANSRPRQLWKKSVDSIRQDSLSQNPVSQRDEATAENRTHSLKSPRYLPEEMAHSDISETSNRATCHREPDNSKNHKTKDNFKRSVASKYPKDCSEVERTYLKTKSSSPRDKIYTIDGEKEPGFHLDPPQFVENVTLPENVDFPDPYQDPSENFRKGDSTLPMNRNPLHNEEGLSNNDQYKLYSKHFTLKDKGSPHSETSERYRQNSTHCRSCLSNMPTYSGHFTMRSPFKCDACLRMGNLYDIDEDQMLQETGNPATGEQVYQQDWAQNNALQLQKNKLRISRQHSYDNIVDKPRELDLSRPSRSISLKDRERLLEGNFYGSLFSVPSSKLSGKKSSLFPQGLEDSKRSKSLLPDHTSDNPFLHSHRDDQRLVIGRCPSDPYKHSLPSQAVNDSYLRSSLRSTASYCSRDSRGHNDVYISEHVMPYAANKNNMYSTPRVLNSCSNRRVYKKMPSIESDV

With `Cc1nnc(CNC(=O)c2ccc(CNS(=O)(=O)c3ccc(F)c(Cl)c3)cn2)o1` [5-(3-chloro-4-fluorobenzenesulfon-amidomethyl)-N-[(5-methyl-1,3,4-oxadiazol-2-yl)methyl]pyridine-2-carboxamide], under “read-out: Binned Activity”, the IC50 was in the range of 1 to 10 µM. On the same count and under the same terms, as for `Cc1nnc(CNC(=O)c2cnc(CNS(=O)(=O)c3ccc(F)c(Cl)c3)cn2)s1` [5-(3-chloro-4-fluorobenzenesulfon-amidomethyl)-N-[(5-methyl-1,3,4-thiadiazol-2-yl)methyl]pyrazine-2-carboxamide], the figure is 0.1 to 1 µM; as for `Cc1nnc(CNC(=O)c2ccc(CNS(=O)(=O)c3ccc(F)c(Cl)c3)cn2)s1` [5-(3-chloro-4-fluorobenzenesulfon-amidomethyl)-N-[(5-methyl-1,3,4-thiadiazol-2-yl)methyl]pyridine-2-carboxamide], 1 to 10 µM; as for `Cc1cnc(CNC(=O)c2cnc(CNS(=O)(=O)c3ccc(F)c(Cl)c3)cn2)cn1` [5-(3-chloro-4-fluorobenzenesulfon-amidomethyl)-N-[(5-methylpyrazin-2-yl)methyl]pyrazine-2-carboxamide], 1 to 10 µM. Consider `Cc1ccc(CNC(=O)c2cnc(CNS(=O)(=O)c3ccc(F)c(Cl)c3)cn2)s1` [5-(3-chloro-4-fluorobenzenesulfon-amidomethyl)-N-[(5-methylthiophen-2-yl)methyl]pyrazine-2-carboxamide], for which the IC50 was 10 µM under setting [1] and above 10 µM (read-out: Binned Activity). The like results for `Cc1ccc(CNC(=O)c2ccc(CNS(=O)(=O)c3ccc(F)c(Cl)c3)cn2)s1` [5-(3-chloro-4-fluorobenzenesulfon-amidomethyl)-N-[(5-methylthiophen-2-yl)methyl]pyridine-2-carboxamide] were, in that order, 10 µM and above 10 µM. The like results for `COc1ccc(CNC(=O)c2cnc(CNS(=O)(=O)c3ccc(F)c(Cl)c3)cn2)cn1` [5-(3-chloro-4-fluorobenzenesulfon-amidomethyl)-N-[(6-methoxypyridin-3-yl)methyl]pyrazine-2-carboxamide] were, in that order, 10 µM and above 10 µM. Turning to `COc1ccc(CNC(=O)c2ccc(CNS(=O)(=O)c3ccc(F)c(Cl)c3)cn2)cn1` [5-(3-chloro-4-fluorobenzenesulfon-amidomethyl)-N-[(6-methoxypyridin-3-yl)methyl]pyridine-2-carboxamide], the IC50 (read-out: Binned Activity) lay within 1 to 10 µM. Consider `Cc1cccc(CNC(=O)c2cnc(CNS(=O)(=O)c3ccc(F)c(Cl)c3)cn2)n1` [5-(3-chloro-4-fluorobenzenesulfon-amidomethyl)-N-[(6-methylpyridin-2-yl)methyl]pyrazine-2-carboxamide], for which the IC50 was 10 µM under setting [1] and above 10 µM (read-out: Binned Activity).

Turning to `Cc1cccc(CNC(=O)c2ccc(CNS(=O)(=O)c3ccc(F)c(Cl)c3)cn2)n1` [5-(3-chloro-4-fluorobenzenesulfon-amidomethyl)-N-[(6-methylpyridin-2-yl)methyl]pyridine-2-carboxamide], the IC50 was 10 µM under setting [1] and above 10 µM (read-out: Binned Activity). In the same order, the values of `Cc1nc(C)c(CNC(=O)c2cnc(CNS(=O)(=O)c3ccc(F)c(Cl)c3)cn2)s1` [5-(3-chloro-4-fluorobenzenesulfon-amidomethyl)-N-[(dimethyl-1,3-thiazol-5-yl)methyl]pyrazine-2-carboxamide] are 10 µM and above 10 µM. For `Cc1nc(C)c(CNC(=O)c2ccc(CNS(=O)(=O)c3ccc(F)c(Cl)c3)cn2)s1` [5-(3-chloro-4-fluorobenzenesulfon-amidomethyl)-N-[(dimethyl-1,3-thiazol-5-yl)methyl]pyridine-2-carboxamide], the IC50 reads like this: under setting [1], 10 µM; (read-out: Binned Activity) above 10 µM. In the same order, the values of `O=C(NCc1ncccc1C(F)(F)F)c1cnc(CNS(=O)(=O)c2ccc(F)c(Cl)c2)cn1` [5-(3-chloro-4-fluorobenzenesulfon-amidomethyl)-N-{[3-(trifluoromethyl)pyridin-2-yl]methyl}pyrazine-2-carboxamide] are 10 µM and above 10 µM.
